Measured values from ChEMBL document CHEMBL1136964, “Nicotinic agonist binding site mapped by methionine- and tyrosine-scanning coupled with azidochloropyridinyl photoaffinity labeling” (J Med Chem, 2009).

Tests used:
Assay type in all cases: cell-based
[1] = Displacement of [3H]epibatidine from Aplysia californica AchBP S114M, M116L mutant expressed in HEK293S cells by scintillation proximity assay
[2] = Displacement of [3H]epibatidine from Aplysia californica AchBP M116Y mutant expressed in HEK293S cells by scintillation proximity assay
[3] = Displacement of [3H]epibatidine from Aplysia californica AchBP A107M mutant expressed in HEK293S cells by scintillation proximity assay
[4] = Displacement of [3H]epibatidine from Aplysia californica AchBP I106M, M116L mutant expressed in HEK293S cells by scintillation proximity assay
[5] = Displacement of [3H]epibatidine from Aplysia californica AchBP Y195F mutant expressed in HEK293S cells by scintillation proximity assay
[6] = Displacement of [3H]epibatidine from Aplysia californica AchBP V108M, M116L, Y195F mutant expressed in HEK293S cells by scintillation proximity assay
[7] = Displacement of [3H]epibatidine from Aplysia californica AchBP A107M, M116L, Y195F mutant expressed in HEK293S cells by scintillation proximity assay
[8] = Displacement of [3H]epibatidine from Aplysia californica AchBP A107M, M116L mutant expressed in HEK293S cells by scintillation proximity assay
[9] = Displacement of [3H]epibatidine from Aplysia californica AchBP I106M, M116L, Y195F mutant expressed in HEK293S cells by scintillation proximity assay
[10] = Displacement of [3H]epibatidine from Aplysia californica AchBP S114M, M116L, Y195F mutant expressed in HEK293S cells by scintillation proximity assay
[11] = Displacement of [3H]epibatidine from Aplysia californica AchBP V108M, M116L mutant expressed in HEK293S cells by scintillation proximity assay
[12] = Displacement of [3H]epibatidine from Aplysia californica AchBP I118M, M116L mutant expressed in HEK293S cells by scintillation proximity assay
[13] = Displacement of [3H]epibatidine from Aplysia californica AchBP I118M, M116L, Y195F mutant expressed in HEK293S cells by scintillation proximity assay
[14] = Displacement of [3H]epibatidine from Aplysia californica AchBP M116L,Y195F mutant expressed in HEK293S cells by scintillation proximity assay
[15] = Displacement of [3H]epibatidine from Aplysia californica AchBP M116L mutant expressed in HEK293S cells by scintillation proximity assay
[16] = Displacement of [3H]epibatidine from Aplysia californica AchBP M116Y, Y195F mutant expressed in HEK293S cells by scintillation proximity assay
[17] = Displacement of [3H]epibatidine from Aplysia californica AchBP S114M mutant expressed in HEK293S cells by scintillation proximity assay
[18] = Displacement of [3H]epibatidine from Aplysia californica AchBP I118M mutant expressed in HEK293S cells by scintillation proximity assay
[19] = Displacement of [3H]epibatidine from wild type Aplysia californica AchBP expressed in HEK293S cells by scintillation proximity assay
[20] = Displacement of [3H]epibatidine from Aplysia californica AchBP V108M mutant expressed in HEK293S cells by scintillation proximity assay

N#C/N=c1\sccn1Cc1cnc(Cl)c(N=[N+]=[N-])c1
Kd [1]: 3 nM | Kd [2]: 27 nM | Kd [3]: 3 nM | Kd [4]: 3.2 nM | Kd [5]: 2.3 nM | Kd [6]: 0.17 nM | Kd [7]: 17 nM | Kd [8]: 1.6 nM | Kd [9]: 5.5 nM | Kd [10]: 7.2 nM | Kd [11]: 0.46 nM | Kd [12]: 68 nM | Kd [13]: 172 nM | Kd [14]: 3 nM | Kd [15]: 9.6 nM | Kd [16]: 19 nM | Kd [17]: 2 nM | Kd [18]: 70 nM | Kd [19]: 1.7 nM | Kd [20]: 1.1 nM

[N-]=[N+]=Nc1cc(C2CC3CCC2N3)cnc1Cl (stereo not given) [AZIDOEPIBATIDINE]
Kd [1]: 15 nM | Kd [2]: 34 nM | Kd [3]: 7.2 nM | Kd [4]: 30 nM | Kd [5]: 8.6 nM | Kd [6]: 0.33 nM | Kd [7]: 37 nM | Kd [8]: 8.1 nM | Kd [9]: 22 nM | Kd [10]: 19 nM | Kd [11]: 0.58 nM | Kd [12]: 4.8 nM | Kd [13]: 12 nM | Kd [14]: 10 nM | Kd [15]: 21 nM | Kd [16]: 67 nM | Kd [17]: 12 nM | Kd [18]: 4.5 nM | Kd [19]: 10 nM | Kd [20]: 1.5 nM

N#C/N=c1\sccn1Cc1ccc(Cl)nc1 [THIACLOPRID OLEFIN]
Kd [1]: 5.6 nM | Kd [2]: 144 nM | Kd [3]: 4 nM | Kd [4]: 4.3 nM | Kd [5]: 3.1 nM | Kd [6]: 1.8 nM | Kd [7]: 20 nM | Kd [8]: 3 nM | Kd [9]: 4.9 nM | Kd [10]: 13 nM | Kd [11]: 4.8 nM | Kd [12]: 299 nM | Kd [13]: 247 nM | Kd [14]: 4.7 nM | Kd [15]: 11 nM | Kd [16]: 60 nM | Kd [17]: 6.2 nM | Kd [18]: 239 nM | Kd [19]: 2.8 nM | Kd [20]: 9.2 nM
